Like-named read-outs stand apart in the source and are kept apart here.
Legend:
[1] = tested on: sodium:potassium ratio of the urine; assay: saluretic / DOCA-antagonizing effect, method of Kagawa (sodium:potassium ratio of the urine); type: in vivo, rats; conditions: for potassium-retentive diuretic effect: in words
Source text: This means that these compounds promote the excretion of sodium ions to a far greater extent than that of potassium ions, thus the sodium:potassium ratio measured in the urine is favourably high. The saluretic effect was examined on rats according to the method of Kagawa (J. Pharm. Exp. Ther. 126, 123 /1959/). The sodium:potassium ratio of the urine was decreased experimentally by introducing deoxycorticosterone acetate (DOCA) into the animals, and the DOCA-antagonizing effects of the compounds were measured. The effects of the two new compounds examined in this test were essentially the same as that of Spironolactone, utilized as reference substance.

[2] = tested on: carrageenin-induced plantar oedema; assay: carrageenin-induced plantar oedema test; type: in vivo, rats; conditions: Rattus norvegicus, read-out: ED50 value, carrageenin-induced plantar oedema test
[3] = LD50 determined on rats after oral administration; conditions: rat, in vivo
Source text: (§1) 1,3-Bis(2',6'-dimethylphenyl)-2-imino-4-methyl-imidazoline fumarate is far more advantageous than Indomethacine also with regard to its toxicological properties. […] Based on the above, the new compound according to the invention can be applied in the treatment of inflammatory disorders with a far greater degree of safety than Indomethacine.

[4] = tested on: urine excretion; assay: Lipschitz test, urine excretion of rats; type: in vivo; conditions: for Urine: 5 hr, control 5.82
Source text: Some of the compounds according to the invention also exert favourable diuretic effects.

[5] = tested on: isolated rat uterine horn; assay: spontaneous activity of isolated rat uterine horn in vitro
[6] = tested on: longitudinal smooth muscle of guinea pig ileum; assay: spontaneous activity of the longitudinal smooth muscle of guinea pig ileum in vitro
[7] = antiphlogistic effect (test not specified); conditions: in vivo
[8] = tested on: cotton granuloma; assay: cotton granuloma test; conditions: in vivo
[9] = tested on: adjuvant arthritis; assay: adjuvant arthritis test; conditions: in vivo
[10] = in vivo
Source text: as §1

[11] = tested on: gastric acid secretion; assay: gastric acid secretion; conditions: in vivo
Source text: as §1

[12] = tested on: prostaglandine synthetase enzyme; assay: inhibition of prostaglandine synthetase enzyme; type: biochemical
Source text: as §1

[13] = tested on: serotonine receptors; assay: blocking of serotonine receptors
Source text: as §1

[14] = tested on: histamine receptors; assay: blocking of histamine receptors
Source text: as §1

[15] = first experiment, 480 μg/animal p.o. with hormone substitution (DOCA) 12.5 μg/animal s.c.
[16] = second experiment, 480 μg/animal p.o. with hormone substitution (DOCA) 12.5 μg/animal s.c.

Compound: CC(=O)S[C@@H]1CC2=CC(=O)CC[C@]2(C)[C@H]2CC[C@@]3(C)[C@@H](CC[C@@]34CCC(=O)O4)[C@H]12 [Spironolactone, reference compound]
- Effects* [1, 15]: 1.17
- Effects* [1, 16]: 1.19

Compound: COc1ccc2c(c1)c(CC(=O)O)c(C)n2C(=O)c1ccc(Cl)cc1 [Indomethacine, reference compound]
- ED50 ([2]; po): 20 mg/kg
- LD50 [3]: 20 mg/kg

Compound: CCOC(=O)NC(=S)N=C1N(c2c(C)cccc2C)CC(C)N1c1c(C)cccc1C (centres unmarked) [1-(1',3'-Bis/2",6"-dimethylphenyl/-4'-methyl-imidazolidine-2'-ylidene)-3-carbethoxy-thiourea]
- Urine ([4]; 25 mg/kg p.o.): 11.16 ml/kgx5 hr.
- diuretic effect / increase of urine excretion ([4]; rats, compared with urea): increases the urine excretion of rats to the same degree as urea
- Effects* [1, 15]: 1.02

Compound: COC(=O)C1CN(c2c(C)cccc2C)C(=N)N1c1c(C)cccc1C (centres unmarked) [Methyl 1,3-bis(2',6'-dimethylphenyl)-2-imino-imidazolidine-4-carboxylate]
- potassium-retentive diuretic effect [1]: also exert potassium-retentive diuretic effect, they are, however, less effective than the compounds listed in Table 2

Compound: NC(N)=O [Urea, reference compound]
- Urine ([4]; 960 mg/kg p.o.): 11.54 ml/kgx5 hr.

Compound: CCOC(=O)N=C1N(c2c(C)cccc2C)CC(C)N1c1c(C)cccc1C (centres unmarked) [1,3-Bis(2',6'-dimethylphenyl)-2-carbethoxyimino-4-methyl-imidazolidine]
- Effects* [1, 16]: 1.19

Compound: CC(=O)OCC(=O)[C@H]1CC[C@H]2[C@@H]3CCC4=CC(=O)CC[C@]4(C)[C@H]3CC[C@]12C [DOCA, deoxycorticosterone acetate, reference compound]
- Effects* ([1]; first experiment, DOCA alone, 12.5 μg/animal s.c.): 0.75
- Effects* ([1]; second experiment, DOCA alone, 12.5 μg/animal s.c.): 0.88

Compound: Cc1cccc(C)c1N1CC(C)N(c2c(C)cccc2C)C1=N (centres unmarked) [1,3-Bis(2',6'-dimethylphenyl)-2-imino-4-methylimidazolidine]
- potassium-retentive diuretic effect [1]: also exert potassium-retentive diuretic effect, they are, however, less effective than the compounds listed in Table 2
- spontaneous activity of isolated rat uterine horn [5]: increase the spontaneous activity
- spontaneous activity of the longitudinal smooth muscle of guinea pig ileum [6]: increase the spontaneous activity

Compound: Cc1cccc(C)c1N1CC(CCl)N(c2c(C)cccc2C)C1=N (centres unmarked) [1,3-Bis(2',6'-dimethylphenyl)-2-imino-4-chloromethyl-imidazolidine]
- antiphlogistic effects [7]: significant antiphthlogistic effects

Compound: Cc1cccc(C)c1N1CC(C)N(c2c(C)cccc2C)C1=N.O=C(O)/C=C/C(=O)O (centres unmarked) [1,3-bis(2',6'-dimethylphenyl)-2-imino-4-methyl-imidazolidine fumarate]
- ED50 ([2]; rats, oral administration): 11 mg/kg
- activity in the cotton granuloma test [8]: considerable activity
- activity in the adjuvant arthritis test [9]: considerable activity
- LD50 [3]: 150 mg/kg
- ulcerogeneous side effect [10]: far lower than that of Indomethacine
- gastric acid secretion [11]: decreases gastric acid secretion to a medium degree
- inhibition of prostaglandine synthetase enzyme [12]: does not inhibit the function of prostaglandine synthetase enzyme
- connection of the antiphlogistic effect with blocking of serotonine receptors [13]: not connected with the blocking of serotonine or histamine receptors
- connection of the antiphlogistic effect with blocking of histamine receptors [14]: not connected with the blocking of serotonine or histamine receptors

Compound: Cc1cccc(C)c1N1CC(C(=O)O)N(c2c(C)cccc2C)C1=N (centres unmarked) [1,3-Bis(2',6'-dimethylphenyl)-2-imino-imidazolidine-4-carboxylic acid]
- antiphlogistic effects [7]: significant antiphthlogistic effects

Compound: CC1CN(c2ccc(Cl)cc2)C(=N)N1c1ccc(Cl)cc1 (centres unmarked) [1,3-Bis(4'-chlorophenyl)-2-imino-4-methyl-imidazolidine]
- antiphlogistic effects [7]: significant antiphthlogistic effects

Compound: Cc1cccc(C)c1N1CC(CC(N)=O)N(c2c(C)cccc2C)C1=N (centres unmarked) [1,3-Bis(2',6'-dimethylphenyl)-2-imino-4-carboxamidomethyl-imidazolidine]
- antiphlogistic effects [7]: significant antiphthlogistic effects

Compound: Cc1cccc(C)c1N1C(=N)N(c2c(C)cccc2C)[C@@H](C)[C@H]1C [1,3-Bis(2',6'-dimethylphenyl)-2-imino-4,5-cis-dimethylimidazolidine]
- potassium-retentive diuretic effect [1]: also exert potassium-retentive diuretic effect, they are, however, less effective than the compounds listed in Table 2

Compound: Cc1cccc(C)c1N1C(=N)N(c2ccc(Cl)cc2)CC1C (centres unmarked) [1-(4'-Chlorophenyl)-2-imino-3-(2',6'-dimethylphenyl)-4-methyl-imidazolidine]
- antiphlogistic effects [7]: significant antiphthlogistic effects

Compound: COc1ccc(COC(=O)N=C2N(c3c(C)cccc3C)CC(C)N2c2c(C)cccc2C)cc1 (centres unmarked) [1,3-Bis(2',6'-dimethylphenyl)-2-(p-methoxy-benzyloxycarbonyl)-imino-4-methyl-imidazolidine]
- potassium-retentive diuretic effect [1]: strong potassium-retentive diuretic effect

Compound: Cc1cccc(N2CC(C)N(c3ccc(Cl)cc3)C2=N)c1C (centres unmarked) [1-(2',3'-Dimethylphenyl)-2-imino-3-(4'-chlorophenyl)-4-methyl-imidazolidine]
- potassium-retentive diuretic effect [1]: also exert potassium-retentive diuretic effect, they are, however, less effective than the compounds listed in Table 2

Reference: patent US4369325A, “1,3-Diaryl-2-imino-imidazolidines and compounds” (EGYT Gyogyszervegyeszeti Gyar, priority 1978, dated 1983)
